Read-outs that look alike come from different tables or passages of the source.
Tested on: Angiotensin II (AII) vasopressor response
Assay: AII Challenge: antagonism of angiotensin II vasopressor response in conscious spontaneously hypertensive rats
Type: in vivo, rat (male okamoto-Aoki SHR)
Settings: for inhibition in vivo at 3 mg/kg: Rattus norvegicus, read-out: Inhibition; for Change: single SHR
Procedure, shortened: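 Conscious male SHR (16–20 weeks, ~330 g) cannulated under local procaine, blood pressure recorded via transducer. Angiotensin II (human) 0.05 and 0.1 ug/kg i.v. given before and after test compound dosed i.v., i.p. or orally; response measured as rise in systolic pressure (mmHg).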

Q: `CCCCc1nc2ccc([C@H]3[C@@H]4C(=O)CC[C@@H]4ON3Cc3ccccc3)cc2c(=O)n1Cc1ccc(-c2ccccc2-c2nnn[nH]2)cc1` (relative stereo) [Example 55] was tested. Which inhibition in vivo at 3 mg/kg (iv, 0.5 h, SHR n=2, 3 mg/kg I.V., AII 0.05 mcg/kg IV, 30 min post dose) did it give?
A: 97%

Q: And the inhibition in vivo at 3 mg/kg (iv, 0.5 h, SHR n=2, 3 mg/kg I.V., AII 0.1 mcg/kg IV, 30 min post dose)?
A: 95%

Q: And the inhibition in vivo at 3 mg/kg (iv, 1 h, SHR n=2, 3 mg/kg I.V., AII 0.05 mcg/kg IV, 60 min post dose)?
A: 100%

Q: And the inhibition in vivo at 3 mg/kg (iv, 1 h, SHR n=2, 3 mg/kg I.V., AII 0.1 mcg/kg IV, 60 min post dose)?
A: 95%

Q: What about the inhibition in vivo at 3 mg/kg (iv, 2 h, SHR n=2, 3 mg/kg I.V., AII 0.05 mcg/kg IV, 120 min post dose) of the same compound?
A: 97%

Q: What about the inhibition in vivo at 3 mg/kg (iv, 2 h, SHR n=2, 3 mg/kg I.V., AII 0.1 mcg/kg IV, 120 min post dose) of the same compound?
A: 94%

Q: And the inhibition in vivo at 3 mg/kg (iv, 3 h, SHR n=2, 3 mg/kg I.V., AII 0.1 mcg/kg IV, 180 min post dose)?
A: 77%

Q: And the inhibition in vivo at 3 mg/kg (iv, 4 h, SHR n=2, 3 mg/kg I.V., AII 0.05 mcg/kg IV, 240 min post dose)?
A: 89%

Q: And the inhibition in vivo at 3 mg/kg (iv, 4 h)?
A: 82%

Q: What about the inhibition in vivo at 3 mg/kg (iv, 5 h, SHR n=2, 3 mg/kg I.V., AII 0.05 mcg/kg IV, 300 min post dose) of the same compound?
A: 61%

Q: What about the inhibition in vivo at 3 mg/kg (iv, 5 h, SHR n=2, 3 mg/kg I.V., AII 0.1 mcg/kg IV, 300 min post dose) of the same compound?
A: 50%

Q: What about the inhibition in vivo at 3 mg/kg (iv, […], SHR n=2, 3 mg/kg I.V., AII 0.05 mcg/kg IV, 90 min post dose) of the same compound?
A: 89%

Q: And the inhibition in vivo at 3 mg/kg (iv, […], SHR n=2, 3 mg/kg I.V., AII 0.1 mcg/kg IV, 90 min post dose)?
A: 91%

Q: What about the inhibition in vivo at 3 mg/kg (po, 0.5 h, SHR n=2, 3 mg/kg P.O., AII 0.05 mcg/kg IV, 30 min post dose) of the same compound?
A: 21%

Q: What about the inhibition in vivo at 3 mg/kg (po, 0.5 h, SHR n=2, 3 mg/kg P.O., AII 0.1 mcg/kg IV, 30 min post dose) of the same compound?
A: 17%

Q: What about the inhibition in vivo at 3 mg/kg (po, 1 h, SHR n=2, 3 mg/kg P.O., AII 0.05 mcg/kg IV, 60 min post dose) of the same compound?
A: 7%

Q: And the inhibition in vivo at 3 mg/kg (po, 1 h, SHR n=2, 3 mg/kg P.O., AII 0.1 mcg/kg IV, 60 min post dose)?
A: 11%

Q: And the inhibition in vivo at 3 mg/kg (po, 2 h, SHR n=2, 3 mg/kg P.O., AII 0.05 mcg/kg IV, 120 min post dose)?
A: 21%

Q: And the inhibition in vivo at 3 mg/kg (po, 2 h, SHR n=2, 3 mg/kg P.O., AII 0.1 mcg/kg IV, 120 min post dose)?
A: 39%

Q: And the inhibition in vivo at 3 mg/kg (po, 3 h, SHR n=2, 3 mg/kg P.O., AII 0.05 mcg/kg IV, 180 min post dose)?
A: 14%

Q: What about the inhibition in vivo at 3 mg/kg (po, 3 h, SHR n=2, 3 mg/kg P.O., AII 0.1 mcg/kg IV, 180 min post dose) of the same compound?
A: 28%

Q: What about the inhibition in vivo at 3 mg/kg (po, […], SHR n=2, 3 mg/kg P.O., AII 0.05 mcg/kg IV, 90 min post dose) of the same compound?
A: 14%

Q: What about the inhibition in vivo at 3 mg/kg (po, […], SHR n=2, 3 mg/kg P.O., AII 0.1 mcg/kg IV, 90 min post dose) of the same compound?
A: 17%

Q: And the “Average Change” value (SHR n=2, 3 mg/kg I.V., AII 0.05 mcg/kg IV, 30 min post dose)?
A: 1.5 mmHg

Q: What about the “Average Change” value (SHR n=2, 3 mg/kg I.V., AII 0.05 mcg/kg IV, 60 min post dose) of the same compound?
A: 0 mmHg

Q: And the “Average Change” value (SHR n=2, 3 mg/kg I.V., AII 0.05 mcg/kg IV, 90 min post dose)?
A: 5 mmHg

Q: And the “Average Change” value (SHR n=2, 3 mg/kg I.V., AII 0.05 mcg/kg IV, 120 min post dose)?
A: 1.5 mmHg

Q: And the “Average Change” value (SHR n=2, 3 mg/kg I.V., AII 0.05 mcg/kg IV, 180 min post dose)?
A: 2.5 mmHg

Q: And the “Average Change” value (SHR n=2, 3 mg/kg I.V., AII 0.05 mcg/kg IV, 240 min post dose)?
A: 5 mmHg

Q: And the “Average Change” value (SHR n=2, 3 mg/kg I.V., AII 0.05 mcg/kg IV, 300 min post dose)?
A: 17.5 mmHg

Q: What about the “Average Change” value (SHR n=2, 3 mg/kg I.V., AII 0.1 mcg/kg IV, 30 min post dose) of the same compound?
A: 2.5 mmHg

Q: What about the “Average Change” value (SHR n=2, 3 mg/kg I.V., AII 0.1 mcg/kg IV, 60 min post dose) of the same compound?
A: 2.5 mmHg

Q: And the “Average Change” value (SHR n=2, 3 mg/kg I.V., AII 0.1 mcg/kg IV, 90 min post dose)?
A: 5 mmHg

Q: What about the “Average Change” value (SHR n=2, 3 mg/kg I.V., AII 0.1 mcg/kg IV, 120 min post dose) of the same compound?
A: 3.5 mmHg

Q: And the “Average Change” value (SHR n=2, 3 mg/kg I.V., AII 0.1 mcg/kg IV, 180 min post dose)?
A: 12.5 mmHg

Q: What about the “Average Change” value (SHR n=2, 3 mg/kg I.V., AII 0.1 mcg/kg IV, 240 min post dose) of the same compound?
A: 10 mmHg

Q: And the “Average Change” value (SHR n=2, 3 mg/kg I.V., AII 0.1 mcg/kg IV, 300 min post dose)?
A: 27.5 mmHg

Q: What about the “Average Change” value (SHR n=2, 3 mg/kg P.O., AII 0.05 mcg/kg IV, 30 min post dose) of the same compound?
A: 27.5 mmHg

Q: And the “Average Change” value (SHR n=2, 3 mg/kg P.O., AII 0.05 mcg/kg IV, 60 min post dose)?
A: 32.5 mmHg

Q: What about the “Average Change” value (SHR n=2, 3 mg/kg P.O., AII 0.05 mcg/kg IV, 90 min post dose) of the same compound?
A: 30 mmHg

Q: What about the “Average Change” value (SHR n=2, 3 mg/kg P.O., AII 0.05 mcg/kg IV, 120 min post dose) of the same compound?
A: 27.5 mmHg

Q: And the “Average Change” value (SHR n=2, 3 mg/kg P.O., AII 0.05 mcg/kg IV, 180 min post dose)?
A: 30 mmHg

Q: And the “Average Change” value (SHR n=2, 3 mg/kg P.O., AII 0.1 mcg/kg IV, 30 min post dose)?
A: 37.5 mmHg

Q: And the “Average Change” value (SHR n=2, 3 mg/kg P.O., AII 0.1 mcg/kg IV, 60 min post dose)?
A: 40 mmHg

Q: And the “Average Change” value (SHR n=2, 3 mg/kg P.O., AII 0.1 mcg/kg IV, 90 min post dose)?
A: 37.5 mmHg

Q: And the “Average Change” value (SHR n=2, 3 mg/kg P.O., AII 0.1 mcg/kg IV, 120 min post dose)?
A: 27.5 mmHg

Q: And the “Average Change” value (SHR n=2, 3 mg/kg P.O., AII 0.1 mcg/kg IV, 180 min post dose)?
A: 32.5 mmHg

Q: And the Change (3 mg/kg I.V., AII 0.05 mcg/kg IV, 60 min post dose)?
A: 0 mmHg

Q: And the Change (3 mg/kg I.V., AII 0.05 mcg/kg IV, 90 min post dose)?
A: 5 mmHg

Q: And the Change (3 mg/kg I.V., AII 0.05 mcg/kg IV, 240 min post dose)?
A: 5 mmHg

Q: And the Change (3 mg/kg I.V., AII 0.1 mcg/kg IV, 90 min post dose)?
A: 5 mmHg

Q: And the Change (3 mg/kg I.V., AII 0.1 mcg/kg IV, 240 min post dose)?
A: 10 mmHg

Q: And the Change (3 mg/kg P.O., AII 0.1 mcg/kg IV, 60 min post dose)?
A: 40 mmHg

— patent US5294611A, “Angiotensin II receptor blocking 2,3,6 substituted quinazolinones” (American Cyanamid Company, priority 1993, dated 1994)
